According to patent US9006240B2, “Method for assay on the effect of vascularization inhibitor” (Eisai R&D Management Co., Ltd., priority 2005, dated 2015):

What was measured:
MDA-MB-231 = experiment: Anti-tumor effect in MDA-MB-231 subcutaneous xenograft model; type: in vivo, human; conditions: MDA-MB-231 xenograft in nude mice; methanesulfonate 100 mg/kg twice a day, one week, oral; day 8 vs day 1
Procedure: (§1) Human tumor cell lines MDA-MB-231, MDA-MB-468, DU145, AsPC-1 (these four lines were purchased from ATCC), A549 (purchased from Dainippon Pharmaceutical Co., Ltd.), Lovo, SK-OV-3, H526, PC-3, DLD-1, HCT116 (these six lines were purchased from ATCC), SEKI, HMV-1 (these two lines were purchased from JCRB cell bank, National Institute of Biomedical Innovation), LOX (purchased from AntiCancer) and A375 (purchased from Dainippon Pharmaceutical Co., Ltd.) were cultured with RPMI1640 (containing 10% FBS) in a 5% CO2 gas incubator until they reached about 80% confluence. After culturing, cells from each line were recovered with trypsin-EDTA by conventional procedures. The cells were suspended in phosphate buffer to prepare a cell suspension of 1×10^8 cells/ml or 5×10^7 cells/ml. […] The major axis and minor axis of tumor were measured with a Digimatic Caliper (Mitsutoyo). Then, tumor volume, relative tumor volume and ΔT/C were calculated using the following formulas: Tumor volume (TV)=tumor major axis (mm)×tumor minor axis^2 (mm^2)/2 Relative tumor volume (RTV)=tumor volume on the measurement day/tumor volume on the starting day of administration ΔT/C=(tumor volume at day 8 of administration groups−tumor volume at day 1 of administration groups)/(tumor volume at day 8 of control group−tumor volume at day 1 of control group)×100 […]

MDA-MB-468 = experiment: Anti-tumor effect in MDA-MB-468 subcutaneous xenograft model; type: in vivo, human; conditions: MDA-MB-468 xenograft in nude mice; methanesulfonate 100 mg/kg twice a day, one week, oral; day 8 vs day 1
Procedure: as §1

DU145 = experiment: Anti-tumor effect in DU145 subcutaneous xenograft model; type: in vivo, human; conditions: DU145 xenograft in nude mice; methanesulfonate 100 mg/kg twice a day, one week, oral; day 8 vs day 1
Procedure: as §1

H526 = experiment: Anti-tumor effect in H526 subcutaneous xenograft model; type: in vivo, human; conditions: H526 xenograft in nude mice; methanesulfonate 100 mg/kg twice a day, one week, oral; day 8 vs day 1
Procedure: as §1

PC-3 = experiment: Anti-tumor effect in PC-3 subcutaneous xenograft model; type: in vivo, human; conditions: PC-3 xenograft in nude mice; methanesulfonate 100 mg/kg twice a day, one week, oral; day 8 vs day 1
Procedure: as §1

DLD-1 = experiment: Anti-tumor effect in DLD-1 subcutaneous xenograft model; type: in vivo, human; conditions: DLD-1 xenograft in nude mice; methanesulfonate 100 mg/kg twice a day, one week, oral; day 8 vs day 1
Procedure: as §1

HCT116 = experiment: Anti-tumor effect in HCT116 subcutaneous xenograft model; type: in vivo, human; conditions: HCT116 xenograft in nude mice; methanesulfonate 100 mg/kg twice a day, one week, oral; day 8 vs day 1
Procedure: as §1

SEKI = experiment: Anti-tumor effect in SEKI subcutaneous xenograft model; type: in vivo, human; conditions: SEKI xenograft in nude mice; methanesulfonate 100 mg/kg twice a day, one week, oral; day 8 vs day 1
Procedure: as §1

HMV-1 = experiment: Anti-tumor effect in HMV-1 subcutaneous xenograft model; type: in vivo, human; conditions: HMV-1 xenograft in nude mice; methanesulfonate 100 mg/kg twice a day, one week, oral; day 8 vs day 1
Procedure: as §1

LOX = experiment: Anti-tumor effect in LOX subcutaneous xenograft model; type: in vivo, human; conditions: LOX xenograft in nude mice; methanesulfonate 100 mg/kg twice a day, one week, oral; day 8 vs day 1
Procedure: as §1

A375 = experiment: Anti-tumor effect in A375 subcutaneous xenograft model; type: in vivo, human; conditions: A375 xenograft in nude mice; methanesulfonate 100 mg/kg twice a day, one week, oral; day 8 vs day 1
Procedure: as §1

[1] = system: human non-small cell lung cancer cell line (A549); experiment: Combined application of VEGF receptor kinase inhibitor and EGF inhibitor in A549 subcutaneous xenograft model; type: in vivo; conditions: nude mice, 4 weeks, control 9.94 ± 0.77
Procedure: Combined Application of VEGF Receptor Kinase Inhibitor and EGF Inhibitor in Human Non-Small Cell Lung Cancer Cell line (A549) Subcutaneous Xenograft Model (In Vivo) […] Then, cells were recovered with trypsin-EDTA. A cell suspension (5×10^7 cells/ml) was prepared with phosphate buffer containing 50% matrigel. The resultant cell suspension was subcutaneously transplanted into the flank of nude (0.1 ml/mouse). From day 10 of transplantation, 4-(3-chloro-4-(cyclopropylaminocarbonyl)aminophenoxy)-7-methoxy-6-quinolinecarboxamide (a methanesulfonate) and erlotinib were orally administered independently or in combination. With respect to 4-(3-chloro-4-(cyclopropylaminocarbonyl)aminophenoxy)-7-methoxy-6-quinolinecarboxamide (a methanesulfonate), it was administered at 3 mg/kg, 10 mg/kg or 30 mg/kg; once a day; for 4 weeks. With respect to erlotinib, it was administered at 50 mg/kg, once a day, for 4 weeks. The major axis and minor axis of tumor were measured with a Digimatic Caliper (Mitsutoyo). Then, tumor volume and relative tumor volume were calculated using the following formulas: […]

[2] = system: human non-small cell lung cancer cell strain (PC-9); experiment: Combined application of VEGF receptor kinase inhibitor and EGF inhibitor in PC-9 subcutaneous xenograft model; type: in vivo; conditions: PC-9 xenograft, nude mice, 4 weeks, control 7.51 ± 1.69
Procedure: Combined Application of VEGF Receptor Kinase Inhibitor and EGF Inhibitor in Human Non-Small Cell Lung Cancer Cell Strain (PC-9) Subcutaneous Xenograft Model (In Vivo) […] Then, cells were recovered with trypsin-EDTA. A cell suspension (5×10^7 cells/nil) was prepared with phosphate buffer. The resultant cell suspension was subcutaneously transplanted into the flank of nude mice (0.1 ml/mouse). […] The major axis and minor axis of tumor were measured with a Digimatic Caliper (Mitsutoyo). Then, tumor volume and relative tumor volume were calculated using the following formulas: […]

[3] = Compound A 10 mg/kg oral once a day
[4] = Erlotinib 50 mg/kg oral once a day

Structure (SMILES) | ΔT/C (MDA-MB-231) [%] | ΔT/C (MDA-MB-468) [%] | ΔT/C (DU145) [%] | ΔT/C (H526) [%] | ΔT/C (PC-3) [%] | ΔT/C (DLD-1) [%] | ΔT/C (HCT116) [%] | ΔT/C (SEKI) [%] | ΔT/C (HMV-1) [%] | ΔT/C (LOX) [%] | ΔT/C (A375) [%] | Relative Tumor Volume at Day 29 Mean ± Standard Deviation ([1]; Compound A 3 mg/kg oral once a day) | Relative Tumor Volume at Day 29 Mean ± Standard Deviation [1, 3] | Relative Tumor Volume at Day 29 Mean ± Standard Deviation ([1]; Compound A 30 mg/kg oral once a day) | Relative Tumor Volume at Day 29 Mean ± Standard Deviation [2, 3] | Relative Tumor Volume at Day 29 Mean ± Standard Deviation [1, 4] | Relative Tumor Volume at Day 29 Mean ± Standard Deviation [2, 4]
COc1cc2nccc(Oc3ccc(NC(=O)NC4CC4)c(Cl)c3)c2cc1C(N)=O [Compound A, 4-(3-chloro-4-(cyclopropylaminocarbonyl)aminophenoxy)-7-methoxy-6-quinolinecarboxamide] | < −30 | < −30 | < −30 | > 10 | > 10 | > 10 | > 10 | > 10 | > 10 | > 10 | > 10 | 4.34 ± 0.80 | 2.65 ± 0.45 | 1.65 ± 0.31 | 2.24 ± 0.54 |  | 
C#Cc1cccc(Nc2ncnc3cc(OCCOC)c(OCCOC)cc23)c1 [Erlotinib, 4-(3-ethynylphenylamino)-6,7-bis(2-methoxyethoxy)-quinazoline, reference compound] |  |  |  |  |  |  |  |  |  |  |  |  |  |  |  | 5.71 ± 1.84 | 3.30 ± 0.19
